Results on 7 compounds are retold here after patent US5858994A, “Carbohydrate conjugates as inhibitors of cell adhesion” (priority 1994, dated 1999).

In test [1] the target is T1, P-Selectin (Homo sapiens, UniProt P16109).
T1 sequence (P16109 42-771): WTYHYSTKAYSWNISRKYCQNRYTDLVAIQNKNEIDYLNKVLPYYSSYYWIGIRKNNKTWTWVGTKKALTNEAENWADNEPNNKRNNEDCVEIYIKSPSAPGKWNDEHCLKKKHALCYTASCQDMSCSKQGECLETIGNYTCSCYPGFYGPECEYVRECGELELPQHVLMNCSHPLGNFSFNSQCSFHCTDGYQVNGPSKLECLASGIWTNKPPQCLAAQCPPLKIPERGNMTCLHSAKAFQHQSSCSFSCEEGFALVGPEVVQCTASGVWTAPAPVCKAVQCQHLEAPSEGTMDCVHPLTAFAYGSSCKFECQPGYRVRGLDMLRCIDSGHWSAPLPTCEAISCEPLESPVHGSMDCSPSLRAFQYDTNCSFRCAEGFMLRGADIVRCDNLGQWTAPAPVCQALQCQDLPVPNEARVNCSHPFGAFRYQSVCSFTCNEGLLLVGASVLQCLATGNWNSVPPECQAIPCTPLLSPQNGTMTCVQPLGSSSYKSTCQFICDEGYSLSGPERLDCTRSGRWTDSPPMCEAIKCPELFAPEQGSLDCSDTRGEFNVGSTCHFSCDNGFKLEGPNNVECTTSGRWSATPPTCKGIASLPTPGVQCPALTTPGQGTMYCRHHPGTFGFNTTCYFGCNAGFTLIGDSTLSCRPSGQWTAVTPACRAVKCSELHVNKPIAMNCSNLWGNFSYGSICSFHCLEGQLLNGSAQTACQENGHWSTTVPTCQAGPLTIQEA
The experiment in a line: Inhibition of HL60 cell adhesion to soluble, recombinant P-selectin (P-selectin-IgG1 fusion protein). In kind it is cell-based. The text has this: (§1) Carrying out these assays to measure the inhibitory activity of the compounds according to the invention on cell adhesion of promyelocytic cells by means of selecting is described in detail in European Published Application EP 0 601 417.
(§2) In order to test the efficacy of the carbohydrate conjugates on the interaction between the E- and P-selectins (former nomenclature ELAM-1 or GMP-140) with their ligands, an assay is used which in each case is specific only for one of these interactions. The ligands are supplied in their natural form as surface structures on promyelocytic HL60 cells. Since HL60 cells contain ligands and adhesion molecules of very different specificity, the desired specificity of the assay can only be produced by means of the binding component. The binding components used were genetically prepared soluble fusion proteins from the in each case extracytoplasmatic domains of E- or P-selectin and the constant region of a human immunoglobulin of the IgG1 subclass.
Preparation of P-selectin-IgG1
For preparation of the soluble P-selectin-IgG1 fusion protein, the genetic construct "ICD62Rg" published by Aruffo et al., 1991 is used. The further procedure corresponds to the preparation of L-selectin-IgG1 presented under A1.
(§3) 1. 96-well microtiter test plates (Nunc Maxisorb) are incubated at room temperature for 2 hours with 100 μl of a goat anti-human IgG antibody (Sigma) diluted (1+100) in 50 mM Tris pH 9.5. After removing the antibody solution washing is carried out once with PBS.
(§4) 2. 150 μl of the blocking buffer are left in the wells at room temperature for 1 hour. The composition of the blocking buffer is: 0.1% gelatin, 1% BSA, 5% calf serum, 0.2 mM PMSF, 0.02% sodium azide. After removing the blocking buffer washing is carried out once with PBS.
(§5) 3. 100 μl each of cell culture supernatant of appropriately transfected and expressing COS cells are pipetted into the wells. Incubation is carried out at room temperature for 2 hours. After removing the cell culture supernatant washing is carried out once with PBS.
(§6) 4. 20 μl of binding buffer are added to the wells. The binding buffer has the composition: 50 mM HEPES, pH 7.5; 100 mM NaCl; 1 mg/ml BSA; 2 mM MgCl2; 1 mM CaCl2; 3 mM MnCl2; 0.02% sodium azide; 0.2 mM PMSF. 5 μl of the test substance are pipetted into this, mixed by swirling the plate and incubated at room temperature for 10 minutes.
(§7) 5. 50 ml of an HL60 cell culture containing 200,000 cells/ml are centrifuged at 350 g for 4 minutes. The pellet is resuspended in 10 ml of RPMI 1640 and the cells are centrifuged again. For labeling the cells, 50 μg of BCECF-AM (Molecular Probes) are dissolved in 5 μl of anhydrous DMSO; 1.5 ml of RPMI 1640 are then added to the BCECF-AM/DMSO solution. The cells are resuspended using this solution and incubated at 37° C. for 30 minutes. After centrifugation at 350 g for 2 minutes, the labeled cell pellet is resuspended in 11 ml of binding buffer and the resuspended cells are distributed into the microtiter plate wells in 100 μl aliquots. The plate is allowed to stand at room temperature for 10 minutes in order to allow the cells to sediment on the bottom of the test plate. In the course of this, the cells have the opportunity to adhere to the coated plastic.
(§8) 6. To stop the test, the microtiter plate is immersed completely in the stop buffer (25 mM tris, pH 7.5; 125 mM NaCl; 0.1% BSA; 2 mM MgCl2; 1 mM CaCl2; 3 mM MnCl2; 0.02% sodium azide) at an angle of 45°. The stop buffer is removed from the wells by inversion and the procedure is repeated a further two times.
7. Measurement of the BCECF-AM-labeled cells firmly adhering to the wells is carried out in a cytofluorimeter (Millipore) at a sensitivity setting of 4, an excitation wavelength of 485/220 nm and an emission wavelength of 530/250 nm.

Test [2] addresses T2, E-Selectin (Homo sapiens, UniProt P16581).
T2 sequence (P16581 22-556): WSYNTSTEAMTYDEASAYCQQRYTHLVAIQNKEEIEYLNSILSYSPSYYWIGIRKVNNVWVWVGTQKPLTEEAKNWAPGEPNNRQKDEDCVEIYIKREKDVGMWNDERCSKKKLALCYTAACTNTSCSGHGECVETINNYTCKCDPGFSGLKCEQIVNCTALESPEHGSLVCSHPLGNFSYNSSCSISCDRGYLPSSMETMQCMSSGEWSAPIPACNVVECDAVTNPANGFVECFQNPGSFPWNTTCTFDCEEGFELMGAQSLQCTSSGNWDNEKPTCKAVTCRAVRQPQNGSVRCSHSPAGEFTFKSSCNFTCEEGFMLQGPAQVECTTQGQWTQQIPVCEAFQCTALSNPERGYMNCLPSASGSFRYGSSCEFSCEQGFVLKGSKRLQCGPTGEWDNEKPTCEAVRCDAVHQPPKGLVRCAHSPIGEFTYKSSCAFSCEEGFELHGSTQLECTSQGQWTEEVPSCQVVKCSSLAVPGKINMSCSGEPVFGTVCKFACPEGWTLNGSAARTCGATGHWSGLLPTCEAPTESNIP
Put plainly: Inhibition of HL60 cell adhesion to soluble, recombinant E-selectin (E-selectin-IgG1 fusion protein). It is filed as cell-based.
Text: as §1, §2
Preparation of L-selectin-IgG1
For the preparation of soluble L-selectin-IgG1 fusion protein, the genetic construct "ELAM-Rg" published by Walz et al., 1990 was used.
For expression, the plasmid DNA was transfected in COS-7 cells (ATCC) by means of DEAE-dextran (Molecular Biology Methods: see Ausubel, F. M., Brent, R., Kingston, R. E., Moore, D. D., Seidman, J. G., Struhl, K. and Smith, J. A. 1990. Current Protocols in Molecular Biology, John Wiley, New York). Seven days after transfection, the culture supernatant is recovered, freed from cells and cell fragments by centrifugation and transferred to 25 mM HEPES pH 7.0, 0.3 mM PMSF, 0.02% sodium azide and stored at +4° C.
as §3, §4, §5, §6, §7, §8

The mark [3] stands for this setting: inhibition of HL60 cell adhesion to soluble, recombinant adhesion molecules; read-out: IC50 P-Selectin.
[4] abbreviates: inhibition of HL60 cell adhesion to soluble, recombinant adhesion molecules; read-out: IC50 E-Selectin.

Like-named read-outs stand apart in the source and are kept apart here.

Regarding `CCCCCCCCCCCCCCCC(=O)N[C@@H](CSCC(COC(=O)CCCCCCCCCCCCCCC)OC(=O)CCCCCCCCCCCCCCC)C(=O)NCCCCCCO[C@@H]1O[C@H](CO)[C@@H](O[C@@H]2O[C@H](CO)[C@H](O)[C@H](O[C@]3(C(=O)O)C[C@H](O)[C@@H](NC(C)=O)[C@H]([C@H](O)[C@H](O)CO)O3)[C@H]2O)[C@H](O[C@@H]2O[C@@H](C)[C@@H](O)[C@@H](O)[C@@H]2O)[C@H]1NC(C)=O` (stereo partly drawn) [Compound I-13], the values for the half-inhibitory concentration (IC50) in test [1] (setting [3]) and in test [2] (setting [4]) were 100 µM and 20 µM, respectively.
Turning to `CC(=O)N[C@H]1[C@H](OCCCCCCNC(=O)CCC(=O)O)O[C@H](CO)[C@@H](O[C@@H]2O[C@H](CO)[C@H](O)[C@H](O[C@]3(C(=O)O)C[C@H](O)[C@@H](NC(C)=O)[C@H]([C@H](O)[C@H](O)CO)O3)[C@H]2O)[C@@H]1O[C@@H]1O[C@@H](C)[C@@H](O)[C@@H](O)[C@@H]1O` [Compound I-7], the half-maximal inhibitory concentration (IC50) in test [1] (setting [3]) amounted to 1500 µM.
For the compound `CC(=O)N[C@@H]1[C@@H](O[C@@H]2O[C@@H](C)[C@@H](O)[C@@H](O)[C@@H]2O)[C@H](O[C@@H]2O[C@H](CO)[C@H](O)[C@H](O[C@]3(C(=O)O)C[C@H](O)[C@@H](NC(C)=O)[C@H]([C@H](O)[C@H](O)CO)O3)[C@H]2O)[C@@H](CO)O[C@H]1NC(=O)CCC(CCC(=O)N[C@@H]1O[C@H](CO)[C@@H](O[C@@H]2O[C@H](CO)[C@H](O)[C@H](O[C@]3(C(=O)O)C[C@H](O)[C@@H](NC(C)=O)[C@H]([C@H](O)[C@H](O)CO)O3)[C@H]2O)[C@H](O[C@@H]2O[C@@H](C)[C@@H](O)[C@@H](O)[C@@H]2O)[C@H]1NC(C)=O)(CCC(=O)N[C@@H]1O[C@H](CO)[C@@H](O[C@@H]2O[C@H](CO)[C@H](O)[C@H](O[C@]3(C(=O)O)C[C@H](O)[C@@H](NC(C)=O)[C@H]([C@H](O)[C@H](O)CO)O3)[C@H]2O)[C@H](O[C@@H]2O[C@@H](C)[C@@H](O)[C@@H](O)[C@@H]2O)[C@H]1NC(C)=O)[N+](=O)[O-]` [II-1, tris{2-[N-(5-acetamido-3,5-dideoxy-D-glycero-D-galacto-2-nonulopyranosylate)-(2→3)-(β-D-galactopyranosyl)-(1→4)-[(α-L-fucopyranosyl)-(1→3)]-2-acetamido-1,2-dideoxy-β-D-glucopyranose]amidoethyl}nitro-methane], the IC50 in test [1] (read-out: IC50 P-Selectin; inhibition of HL60 cell adhesion to soluble, recombinant adhesion molecules) is > 800 µM; in test [2] (read-out: IC50 E-Selectin; inhibition of HL60 cell adhesion to soluble, recombinant adhesion molecules) it was 380 µM.
As for `CC(=O)N[C@H]1[C@H](OCCCCCCNC(=O)C2CCC(CN3C(=O)C=CC3=O)CC2)O[C@H](CO)[C@@H](O[C@@H]2O[C@H](CO)[C@H](O)[C@H](O[C@]3(C(=O)O)C[C@H](O)[C@@H](NC(C)=O)[C@H]([C@H](O)[C@H](O)CO)O3)[C@H]2O)[C@@H]1O[C@@H]1O[C@@H](C)[C@@H](O)[C@@H](O)[C@@H]1O` (stereo partly drawn) [Compound I-9], in test [1] (setting [3]), the IC50 stood at 330 µM.
As for `CC(=O)N[C@H]1[C@H](OCCCCCCN)O[C@H](CO)[C@@H](O[C@@H]2O[C@H](CO)[C@H](O)[C@H](O[C@]3(C(=O)O)C[C@H](O)[C@@H](NC(C)=O)[C@H]([C@H](O)[C@H](O)CO)O3)[C@H]2O)[C@@H]1O[C@@H]1O[C@@H](C)[C@@H](O)[C@@H](O)[C@@H]1O` [III (n = 6), reference compound], in test [1] (setting [3]), the IC50 amounted to 2000 µM.
As for `CC(=O)N[C@H]1[C@H](OCCCCCCNC(=O)[C@@H](N)CCC(=O)O)O[C@H](CO)[C@@H](O[C@@H]2O[C@H](CO)[C@H](O)[C@H](O[C@]3(C(=O)O)C[C@H](O)[C@@H](NC(C)=O)[C@H]([C@H](O)[C@H](O)CO)O3)[C@H]2O)[C@@H]1O[C@@H]1O[C@@H](C)[C@@H](O)[C@@H](O)[C@@H]1O` [Compound I-6], in test [2] (setting [4]), the IC50 was 1200 µM.
Regarding `CC(=O)N[C@H]1[C@H](OCCCCCCNC(=O)CCCC[C@@H]2SC[C@@H]3NC(=O)N[C@@H]32)O[C@H](CO)[C@@H](O[C@@H]2O[C@H](CO)[C@H](O)[C@H](O[C@]3(C(=O)O)C[C@H](O)[C@@H](NC(C)=O)[C@H]([C@H](O)[C@H](O)CO)O3)[C@H]2O)[C@@H]1O[C@@H]1O[C@@H](C)[C@@H](O)[C@@H](O)[C@@H]1O` [Compound I-11], the IC50 in test [1] (setting [3]) is 600 µM.
